Where “and” joins values, the source holds several entries; their conditions need not be identical. Equal values may be shown once. Read-outs that look alike come from different tables or passages of the source.
Assays:
[1] = test system: patients with psychogenic impotence
[2] = test system: patients with psychogenic impotence; conditions: for Mean (SE) erectile function / Percent (SE) successful erectile function (score at least 16): N 12
[3] = sublingual tablets 2.5 mg and 5 mg, seven evaluable patients
[4] = sublingual tablets 3, 4, 5 mg (Table I), twelve patients

## CN1CCc2cccc3c2[C@H]1Cc1ccc(O)c(O)c1-3 [apomorphine]
[1]; 2.5 mg dose, patients who failed testing
  yawns per session: one or two
[1]; 5 mg dose
  yawning responses per session: three to five
[1]; sublingual tablet 2.5 mg, the two successful patients
  adverse effects: did not produce adverse effects
[1]; sublingual tablet 5 mg
  adverse effects (nausea, diaphoresis, dizziness, blurred vision, facial flushing, drop in heart rate and blood pressure): produced adverse effects
[1]; [3]
  failures during lab testing: 71%
  successes (score of no less than 16) during lab testing: 28% and 29%
[1]; sublingual tablets 2.5 and 5 mg
  erectile response: produced erectile responses in some patients
[1]; sublingual tablets 2.5 and 5 mg, under the tongue
  time for sublingual tablets to dissolve: five
[1]; the two successful patients, 2.5 mg and 5 mg doses
  yawns: three to five
[2]; 3 mg and 4 mg, regardless of stimulus background
  active treatment compared with placebo, mean erectile function: more effective than placebo
[2]; Erotic stimulus, 3 mg
  Mean (SE) erectile function: 18.75 (2.51)
  Percent (SE) successful erectile function (score at least 16): 66.67 (13.61) Percent
[2]; Erotic stimulus, 4 mg
  Mean (SE) erectile function: 19.83 (2.67)
  Percent (SE) successful erectile function (score at least 16): 66.67 (13.61) Percent
[2]; Neutral stimulus, 3 mg
  Mean (SE) erectile function: 11.83 (2.68)
  Percent (SE) successful erectile function (score at least 16): 50.00 (14.43) Percent
[2]; Neutral stimulus, 4 mg
  Mean (SE) erectile function: 13.50 (2.61)
  Percent (SE) successful erectile function (score at least 16): 50.00 (14.43) Percent
[2]; all doses 3, 4, 5 mg
  number of yawns: one or two
[2]; eight successful patients, one to four months
  domestic use, patient reports: good erectile activity and no side effects
[2]; of group of seven
  patients successfully treated among those who had failed a trial of yohimbine HCl: four
[2]; [4]
  failures with apomorphine: 33%
  patients successful with apomorphine: 67%
